# Laboratory results reported in patent publication US9828368B2 (MERCK SHARP & DOHME CORP., priority 2013, dated 2017).
# Like-named read-outs stand apart in the source and are kept apart here.
# Tests used:
# [1] = biological target: human orexin-2 receptor (Homo sapiens (Human), UniProt O43614); test: FLIPR Ca2+ flux assay, hOX2R; format: cell-based; details: CHO cells expressing human orexin-2 receptor; agonist 70 pM Ala-6,12 orexin-A
# Description: In a typical experiment the OX1 and OX2 receptor antagonistic activity of the compounds of the present invention was determined in accordance with the following experimental method. For intracellular calcium measurements, Chinese hamster ovary (CHO) cells expressing the rat orexin-1 receptor or the human orexin-2 receptor, are grown in Iscove's modified DMEM containing 2 mM L-glutamine, […], 1% hypoxanthine-thymidine supplement, 100 U/ml penicillin, 100 μg/ml streptomycin and 10% heat-inactivated fetal calf serum (FCS). The cells are seeded at 20,000 cells/well into Becton-Dickinson black 384-well clear bottom sterile plates coated with poly-D-lysine. All reagents were from GIBCO-Invitrogen Corp. The seeded plates are incubated overnight at 37° C. and 5% CO2. Ala-6,12 human orexin-A as the agonist is prepared as a 1 mM stock solution in 1% bovine serum albumin (BSA) and diluted in assay buffer (HBSS containing 20 mM HEPES, 0.1% BSA and 2.5 mM probenecid, pH7.4) for use in the assay at a final concentration of 70 pM. Test compounds are prepared as 10 mM stock solution in DMSO, then diluted in 384-well plates, first in DMSO, then assay buffer. On the day of the assay, cells are washed 3 times with 100 μl assay buffer and then incubated for 60 min (37° C., 5% CO2) in 60 μl assay buffer containing 1 μM Fluo-4AM ester, 0.02% pluronic acid, and 1% BSA. The dye loading solution is then aspirated and cells are washed 3 times with 100 μl assay buffer. 30 μl of that same buffer is left in each well. Within the Fluorescent Imaging Plate Reader (FLIPR, Molecular Devices), test compounds are added to the plate in a volume of 25 μl, incubated for 5 min and finally 25 μl of agonist is added. Fluorescence is measured for each well at 1 second intervals for 5 minutes and the height of each fluorescence peak is compared to the height of the fluorescence peak induced by 70 pM Ala-6,12 orexin-A with buffer in place of antagonist. […] The intrinsic orexin receptor antagonist activity of a compound which may be used in the present invention may be determined by these assays.
# [2] = biological target: hOX1R (Homo sapiens, UniProt O43613); test: FLIPR Ca2+ flux assay, hOX1R; format: cell-based
# [3] = CHO cells, agonist 70 pM Ala-6,12 orexin-A, rat orexin-1 receptor, read-out: hOX1R FLIPR IC50
# Sequence of human orexin-2 receptor (O43614 whole entry): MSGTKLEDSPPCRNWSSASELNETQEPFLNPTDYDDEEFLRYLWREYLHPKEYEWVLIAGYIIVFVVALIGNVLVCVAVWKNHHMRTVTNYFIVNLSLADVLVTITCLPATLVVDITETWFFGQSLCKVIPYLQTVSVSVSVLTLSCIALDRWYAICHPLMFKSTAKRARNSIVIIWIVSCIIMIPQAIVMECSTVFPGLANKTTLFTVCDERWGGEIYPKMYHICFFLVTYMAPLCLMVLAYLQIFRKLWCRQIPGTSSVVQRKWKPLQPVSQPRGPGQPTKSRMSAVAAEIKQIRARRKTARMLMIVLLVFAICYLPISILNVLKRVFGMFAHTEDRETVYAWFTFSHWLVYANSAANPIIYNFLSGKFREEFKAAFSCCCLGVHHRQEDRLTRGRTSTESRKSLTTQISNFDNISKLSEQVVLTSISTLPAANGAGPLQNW
Compound,IC50 [1] [nM],"IC50 [2, 3] [nM]",IC50 [2] [nM]
"CC(O)c1nc([C@@H]2CC[C@@H](C)N(C(=O)c3ccccc3-n3nccn3)C2)oc1-c1ccccc1 (single isomer, unassigned) [Example 64]",76,136,–
"CC(O)c1nc([C@@H]2CC[C@@H](C)N(C(=O)c3ccccc3-n3nccn3)C2)oc1-c1ccccc1 (single isomer, unassigned) [Example 65]",130,155,–
"CCC(C)(O)c1nc([C@@H]2CC[C@@H](C)N(C(=O)c3ccsc3-n3nccn3)C2)oc1C (stereo in doubt) [Example 48, (2-(2H-1,2,3-Triazol-2-yl)thiophen-3-yl)((2R,5R)-5-(4-((S)-2-hydroxybutan-2-yl)-5-methyloxazol-2-yl)-2-methylpiperidin-1-yl)methanone]",–,1810,–
"C[C@@H]1CC[C@@H](c2nc(Br)co2)CN1C(=O)c1ccccc1-n1nccn1 [Example 1, (2-(2H-1,2,3-Triazol-2-yl)phenyl)((2R,5R)-5-(4-bromooxazol-2-yl)-2-methylpiperidin-1-yl)methanone]",138,–,~7900
"COC(=O)C1CC1c1coc([C@@H]2CC[C@@H](C)N(C(=O)c3ccccc3-n3nccn3)C2)n1 (stereo partly drawn) [Example 2, Methyl 2-(2-((3R,6R)-1-(2-(2H-1,2,3-triazol-2-yl)benzoyl)-6-methylpiperidin-3-yl)oxazol-4-yl)cyclopropanecarboxylate]",49,3000,–
"C[C@@H]1CC[C@@H](c2nc(C3CC3)co2)CN1C(=O)c1ccccc1-n1nccn1 [Example 4, (2-(2H-1,2,3-Triazol-2-yl)phenyl)((2R,5R)-5-(4-cyclopropyloxazol-2-yl)-2-methylpiperidin-1-yl)methanone]",47,700,–
"C[C@@H]1CC[C@@H](c2nc(-c3ccccc3CO)co2)CN1C(=O)c1ccccc1-n1nccn1 [Example 5, (2-(2H-1,2,3-Triazol-2-yl)phenyl)((2R,5R)-5-(4-(2-(hydroxymethyl)phenyl)oxazol-2-yl)-2-methylpiperidin-l-yl)methanone]",30,46,–
"C[C@@H]1CC[C@@H](c2nc(-c3cccc(F)n3)co2)CN1C(=O)c1ccccc1-n1nccn1 [Example 6, (2-(2H-1,2,3-Triazol-2-yl)phenyl)((2R, 5R)-5-(4-(6-fluoropyridin-2-yl)oxazol-2-yl)-2-methylpiperidin-1-yl)methanone]",150,670,–
"Cc1cccc(-c2coc([C@@H]3CC[C@@H](C)N(C(=O)c4ccccc4-n4nccn4)C3)n2)c1 [Example 7, (2-(2H-1,2,3-Triazol-2-yl)phenyl)((2R,5R)-2-methyl-5-(4-(m-tolyl)oxazol-2-yl)piperidin-1-yl)methanone]",410,260,–
"C[C@@H]1CC[C@@H](c2nc(C(C)(C)O)co2)CN1C(=O)c1ccccc1-n1nccn1 [Example 10, (2-(2H-1,2,3-Triazol-2-yl)phenyl)((2R,5R)-5-(4-(2-hydroxypropan-2-yl)oxazol-2-yl)-2-methylpiperidin-1-yl)methanone]",59,2700,–
"C[C@@H]1CC[C@@H](c2nc(C#N)c(Br)o2)CN1C(=O)c1ccccc1-n1nccn1 [Example 11, 2-((3R,6R)-1-(2-(2H-1,2,3-Triazol-2-yl)benzoyl)-6-methylpiperidin-3-yl)-5-bromooxazole-4-carbonitrile]",350,> 10000,–
"COC(=O)c1nc([C@@H]2CC[C@@H](C)N(C(=O)c3ccccc3-n3nccn3)C2)oc1Br [Example 12, Methyl 2-((3R,6R)-1-(2-(2H-1,2,3-Triazol-2-yl)benzoyl)-6-methylpiperidin-3-yl)-5-bromooxazole-4-carboxylate]",30,875,–
"Cc1oc([C@@H]2CC[C@@H](C)N(C(=O)c3ccccc3-n3nccn3)C2)nc1C(C)(C)O [Example 13, (2-(2H-1,2,3-Triazol-2-yl)phenyl)((2R,5R)-5-(4-(2-hydroxypropan-2-yl)-5-methyloxazol-2-yl)-2-methylpiperidin-1-yl)methanone]",12.8,815,–
"C[C@@H]1CC[C@@H](c2nc(C(C)(C)O)c(C3CC3)o2)CN1C(=O)c1ccccc1-n1nccn1 [Example 14, (2-(2H-1,2,3-Triazol-2-yl)phenyl)((2R,5R)-5-(5-cyclopropyl-4-(2-hydroxypropan-2-yl)oxazol-2-yl)-2-methylpiperidin-1-yl)methanone]",19,21,–
"CC(C)c1oc([C@@H]2CC[C@@H](C)N(C(=O)c3ccccc3-n3nccn3)C2)nc1C(C)(C)O [Example 15, (2-(2H-1,2,3-Triazol-2-yl)phenyl)((2R,5R)-5-(4-(2-hydroxypropan-2-yl)-5-isopropyloxazol-2-yl)-2-methylpiperidin-1-yl)methanone]",17,10,–
"C[C@@H]1CC[C@@H](c2nc(C(C)(C)C)co2)CN1C(=O)c1ccccc1-n1nccn1 [Example 16, (2-(2H-1,2,3-Triazol-2-yl)phenyl)((2R,5R)-5-(4-(tert-butyl)oxazol-2-yl)-2-methylpiperidin-1-yl)methanone]",60,290,–
"C[C@@H]1CC[C@@H](c2nc(-c3ccccc3)co2)CN1C(=O)c1ccccc1-n1nccn1 [Example 17, (2-(2H-1,2,3-Triazol-2-yl)phenyl)((2R,5R)-2-methyl-5-(4-phenyloxazol-2-yl)piperidin-1-yl)methanone]",38,120,–
"Cc1oc([C@@H]2CC[C@@H](C)N(C(=O)c3ccccc3-n3nccn3)C2)nc1[C@@H](O)C(F)(F)F [Example 18, (2-(2H-1,2,3-Triazol-2-yl)phenyl)((2R,5R)-2-methyl-5-(5-methyl-4-((R)-2,2,2-trifluoro-1-hydroxyethyl)oxazol-2-yl)piperidin-1-yl)methanone]",13.9,420,–
"Cc1oc([C@@H]2CC[C@@H](C)N(C(=O)c3ccccc3-n3nccn3)C2)nc1[C@H](O)C(F)(F)F [Example 19, (2-(2H-1,2,3-triazol-2-yl)phenyl)((2R,5R)-2-methyl-5-(5-methyl-4-((S)-2,2,2-trifluoro-1-hydroxyethyl)oxazol-2-yl)piperidin-1-yl)methanone]",24,790,–
"COc1ccccc1C(=O)N1C[C@H](c2nc(C(C)(C)O)c(C)o2)CC[C@H]1C [Example 31, ((2R,5R)-5-(4-(2-Hydroxypropan-2-yl)-5-methyloxazol-2-yl)-2-methypiperidin-1-yl)(2-methoxyphenyl)methanone]",80,–,–
Cc1oc([C@@H]2CC[C@@H](C)N(C(=O)c3cscc3-c3ncccn3)C2)nc1C(C)(C)O [Example 36],–,> 10000,–
"CC[C@](C)(O)c1nc([C@@H]2CC[C@@H](C)N(C(=O)c3ccsc3-n3nccn3)C2)oc1C [Example 49, (2-(2H-1,2,3-triazol-2-yl)thiophen-3-yl)((2R,5R)-5-(4-((S)-2-hydroxybutan-2-yl)-5-methyloxazol-2-yl)-2-methylpiperidin-1-yl)methanone]",–,1740,–
"C[C@@H]1CC[C@@H](c2nc(CN(C)C)c(-c3ccccc3)o2)CN1C(=O)c1ccccc1-n1nccn1 [Example 66, (2-(2H-1,2,3-Triazol-2-yl)phenyl)((2R,5R)-5-(4-((dimethylamino)methyl)-5-phenyloxazol-2-yl)-2-methylpiperidin-1-yl)methanone]",983,–,–
COC(=O)Cc1nc([C@@H]2CC[C@@H](C)N(C(=O)c3ccccc3-n3nccn3)C2)oc1-c1ccccc1 [Example 67],–,93,–
